Literature values as cited in US20190070210A1, “COMPOSITION AND METHODS FOR CONDITIONS ASSOCIATED WITH CHRONIC PULMONARY OBSTRUCTIVE DISEASE” (priority 2017, published 2019).

Conditions: solution, 4° C. and neutral pH

SMILES: NC(=O)c1ccc[n+]([C@@H]2O[C@H](COP(=O)([O-])OP(=O)(O)OC[C@H]3O[C@@H](n4cnc5c(N)ncnc54)[C@H](O)[C@@H]3O)[C@@H](O)[C@H]2O)c1 [NAD+, nicotinamide adenine dinucleotide]
- time for which solutions are stable: about a week
